# Assay results from patent US20240368122A1, “JAK2 INHIBITORS AND METHODS OF USE THEREOF” (RELAY THERAPEUTICS, INC., priority 2021, published 2024).
# pIC50, pKd: −log10 of the molar value. Like-named read-outs stand apart in the source and are kept apart here.
# Columns and labels:
# [1] = test system: TF1 JAK2 V617F STAT3 reporter; assay: Cellular TF1 STAT3 assay (luciferase reporter), JAK2 V617F; type: cell-based; conditions: read-out: Cell PD-TF1 JAK2 V617F STAT3 (IC50)
# Description: (§1) Selected compounds of the present disclosure were tested in a Cellular TF1 STAT3 or STAT5 assay, to measure the degree of JAK2-mediated STAT3 or STAT5 phosphorylation, respectively. TF1 cells (immortalized erythroleukemia line) expressing either wildtype or V617F mutant JAK2 with a luciferase reporter were used.
# (§2) Cell culture: Cells were put into antibiotic selection (1 ug/ml puro+500 ug/ml Geneticin) when first thawed then maintained in growth media without antibiotics. Cells were maintained in exponential growth phase, between 0.02-1 E6 cells/ml.
# (§3) Compound preparation: Compounds were screened as 10-point dose response curves 1:3 dilutions. DMSO is used as the vehicle control. All wells were normalized to the same final DMSO concentration. Compounds were pre-spotted onto 384 well plates using an Echo acoustic dispenser, 50 nL of 1000× (10 mM top concentration) DMSO stock/well. Each compound is run in triplicate plates.
# (§4) Cell plating: Cells were counted using Vi-Cell XR, then cells were spun down and resuspended in growth media to 200,000 cells/ml. Cells were added to plates containing compound. 10,000 cells/well in 50 ul volume using a Biomek liquid handler. Plates were briefly mixed on a shaker for 1 minute at 2500 rpm then placed in a 37° C., 5% CO2 incubator overnight for 18-20 hrs.
# (§5) Measuring luciferase activity: ONE-glo reagent was brought to room temperature, and 25 μL of ONE-glo assay reagent was added to each well using Biomek liquid handler. The plates were incubated for 10 minutes at room temperature, then luminescence was measured on an Envision plate reader.
# [2] = target: T1, JAK2 JH2 WT (V536-D812) [W659A, W777A, F794H solubilizing mutations] (Homo sapiens, UniProt O60674, F794H/W659A/W777A); assay: Surface Plasmon Resonance (SPR) binding assay, JAK2 JH2 domain
# T1 construct: **JAK2 JH2 WT (V536-D812) [W659A, W777A, F794H solubilizing mutations]; C-thrombin-avi-His6; thrombin cleavage site (C); His6 (C); purchased Biortus
# Description: Selected compounds of the present disclosure were tested in a Surface Plasmon Resonance (SPR) Assay to measure their binding kinetics and affinity for proteins of interest.
# Prepare buffer: 50 mM HEPES pH 7.5, 150 mM NaCl, 0.05% (v/v) Tween, and 10% (v/v) glycerol were combined and pH was adjusted to 7.5, then filtered. 5 mM DTT, was added, and buffer without DMSO was reserved for compound resuspension. 2% (v/v) DMSO was added for assay buffer, and separately 1% DMSO was used to make buffer for resuspending compounds.
# Prepare compounds: Using a Bravo liquid handler, 99 μL of 1% (v/v) DMSO assay buffer was added to 1 μL compounds in DMSO.
# Run 8K Method: Biotin CAPture (CAP) chip surface was regenerated prior to run by: Inserting CAP chip into Biacore 8K, prime machine with assay buffer with 2% (v/v) DMSO; Setting instrument temperature to 20° C.; Conditioning surface with NaOH/GdnHCl reagents from CAP chip kit (60 seconds, 10 μL/min); and Capturing oligo-Streptavidin (SA) reagent from CAP kit (600 seconds, 1 μL/min), expected capture ˜2500 RU. JAK2 JH1 or JH2 protein was immobilized by preparing a sample of 0.5 uM JH1 or 0.4 uM JH2 protein diluted in assay buffer without DMSO and supplemented with 10 uM of a selected compound of the invention as a stabilizer (370 seconds, 5 uL/min), expected capture ˜1000 RU. Remaining biotin sites on SA were blocked with 1 uM biotin (30 seconds, 20 uL/min), then equilibrated for 1800 seconds at 100 uL/min. Compounds being assayed were run in single cycle kinetics: 4 doses with a top concentration of 5 uM (JH1) or 500 nM (JH2), dilution factor of 3, at 20° C., for a contact time of 60 seconds, and a dissociation time of 300 seconds (JH1) or 1200 seconds (JH2), at a flow rate of 30 uL/min. The surface was completely regenerated after each compound is run, and JH1 or JH2 protein was immobilized fresh prior to each new compound. Data were fitted kinetically with 1:1 binding model using Biacore Insight Evaluation Software.
# [3] = test system: TF1 JAK2 V617F STAT5 reporter; assay: Cellular TF1 STAT5 assay (luciferase reporter), JAK2 V617F; type: cell-based; conditions: read-out: Cell PD TF1 V617F STAT5 (IC50)
# Description: as §1, §2, §3, §4, §5
# [4] = Homo sapiens, TF-1, TF1 cells, JAK2 V617F
# T1 sequence (O60674 536-812 W659A/W777A/F794H): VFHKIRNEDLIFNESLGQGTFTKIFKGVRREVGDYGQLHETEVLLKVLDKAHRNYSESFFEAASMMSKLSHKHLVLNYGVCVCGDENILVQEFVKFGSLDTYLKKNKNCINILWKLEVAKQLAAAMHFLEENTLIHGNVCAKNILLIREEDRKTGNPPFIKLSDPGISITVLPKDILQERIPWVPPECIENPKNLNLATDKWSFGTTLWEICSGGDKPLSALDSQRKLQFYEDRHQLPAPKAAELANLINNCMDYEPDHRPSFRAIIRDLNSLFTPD
Structure (SMILES),"pIC50 [1, 4]",pKd [2],"pIC50 [3, 4]",pIC50 ([1]; TF1 JAK2 V617F),"pKd ([2]; SPR, JAK2 JH2 domain)",pIC50 ([3]; TF1 JAK2 V617F)
CNC(=O)c1nnc(NC(=O)C2CC2)cc1Nc1cccc(-c2cn([C@H]3CN(Cc4cccc(C)n4)[C@@H]3C)nn2)c1OC (stereo in doubt) [Compound 235],6.30 to 7.30,8.00 to 11.00,6.30 to 7.30,–,–,–
CNC(=O)c1nnc(NC(=O)C2CC2)cc1Nc1cccc(-c2cn([C@H]3CN(Cc4cccc(Cl)n4)[C@@H]3C)nn2)c1OC (stereo in doubt) [Compound 236],6.30 to 7.30,8.00 to 11.00,6.30 to 7.30,–,–,–
CNC(=O)c1nnc(NC(=O)C2CC2)cc1Nc1cccc(-c2cn(C3CN(Cc4cccc(C#N)n4)[C@@H]3C)nn2)c1OC (stereo in doubt) [Compound 237],5.30 to 6.30,8.00 to 11.00,5.30 to 6.30,–,–,–
CNC(=O)c1nnc(NC(=O)C2CC2)cc1Nc1cccc(-c2cn([C@@H]3CN(Cc4cccc(C)n4)[C@H]3C)nn2)c1OC (stereo in doubt) [Compound 238],5.30 to 6.30,8.00 to 11.00,5.30 to 6.30,–,–,–
CNC(=O)c1nnc(NC(=O)C2CC2)cc1Nc1cccc(-c2cn(C3CN(Cc4cccc(Cl)n4)[C@@H]3C)nn2)c1OC (stereo in doubt) [Compound 239],5.30 to 6.30,8.00 to 11.00,5.30 to 6.30,–,–,–
CNC(=O)c1nnc(NC(=O)C2CC2)cc1Nc1cccc(-c2cnn([C@@H]3CN(Cc4cccnn4)[C@H]3C)c2)c1OC (stereo in doubt) [Compound 323],5.30 to 6.30,8.00 to 11.00,5.30 to 6.30,–,–,–
CNC(=O)c1nnc(NC(=O)C2CC2)cc1Nc1cccc(-c2ccc(NC(=O)Cc3cccn(C)c3=O)cc2)c1OC [Compound 2],–,–,–,4.00 to 5.30,8.00 to 11.00,4.00 to 5.30
CNC(=O)c1nnc(NC(=O)C2CC2)cc1Nc1cccc(-c2ccc(C(=O)N(CCOC)Cc3cccn(C)c3=O)nc2)c1OC [Compound 15],–,–,–,4.00 to 5.30,8.00 to 11.00,4.00 to 5.30
CNC(=O)c1nnc(NC(=O)C2CC2)cc1Nc1cccc(-c2ccc(C(=O)N(Cc3cccn(C)c3=O)CC(F)F)nc2)c1OC [Compound 16],–,–,–,5.30 to 6.30,8.00 to 11.00,4.00 to 5.30
CNC(=O)c1nnc(NC(=O)C2CC2)cc1Nc1cccc(-c2ccc(C(=O)N(C)Cc3cccnn3)nc2)c1OC [Compound 45],–,–,–,5.30 to 6.30,8.00 to 11.00,5.30 to 6.30
CNC(=O)c1nnc(NC(=O)C2CC2)cc1Nc1ccc(C)c(-c2cnc(C(=O)N(C)Cc3ccn(C)n3)c(F)c2)c1OC [Compound 47],–,–,–,5.30 to 6.30,8.00 to 11.00,5.30 to 6.30
CNC(=O)c1nnc(NC(=O)C2CC2)cc1Nc1cccc(-c2cnc(C(=O)N(C)Cc3ccn(C)n3)nc2)c1OC [Compound 49],–,–,–,5.30 to 6.30,8.00 to 11.00,5.30 to 6.30
CNC(=O)c1nnc(NC(=O)C2CC2)cc1Nc1cccc(-c2ccc(C(=O)N(C)C(C)c3nc(C)no3)nc2)c1OC (stereo not drawn) [Compound 50],–,–,–,4.00 to 5.30,8.00 to 11.00,4.00 to 5.30
CNC(=O)c1nnc(NC(=O)C2CC2)cc1Nc1cccc(-c2ccc(C(=O)N(C)Cc3ccccc3C(F)(F)F)nc2)c1OC [Compound 52],–,–,–,5.30 to 6.30,8.00 to 11.00,5.30 to 6.30
CNC(=O)c1nnc(NC(=O)C2CC2)cc1Nc1cccc(-c2cnc(C(=O)N(C)Cc3ccn(C)n3)c(F)c2)c1OC [Compound 53],–,–,–,5.30 to 6.30,8.00 to 11.00,5.30 to 6.30
CNC(=O)c1nnc(NC(=O)C2CC2)cc1Nc1cccc(-c2ccc(C(=O)N(C)CC3Cc4ccccc4CO3)nc2)c1OC (stereo not drawn) [Compound 54],–,–,–,5.30 to 6.30,8.00 to 11.00,4.00 to 5.30
CNC(=O)c1nnc(NC(=O)C2CC2)cc1Nc1cccc(-c2ccc(C(=O)N(C)Cc3nccs3)nc2)c1OC [Compound 58],–,–,–,5.30 to 6.30,8.00 to 11.00,5.30 to 6.30

# Second part, the compound after the results:
"pIC50 [1, 4]",pKd [2],"pIC50 [3, 4]",pIC50 ([1]; TF1 JAK2 V617F),"pKd ([2]; SPR, JAK2 JH2 domain)",pIC50 ([3]; TF1 JAK2 V617F),Structure (SMILES)
–,–,–,5.30 to 6.30,8.00 to 11.00,4.00 to 5.30,CNC(=O)c1nnc(NC(=O)C2CC2)cc1Nc1cccc(-c2cnc(C(=O)NCc3cccn(C)c3=O)cn2)c1OC [Compound 7]
–,–,–,5.30 to 6.30,8.00 to 11.00,5.30 to 6.30,CNC(=O)c1nnc(NC(=O)C2CC2)cc1Nc1cccc(-c2cnc(C(=O)N(C)Cc3ccccn3)nc2)c1OC [Compound 13]
–,–,–,5.30 to 6.30,8.00 to 11.00,5.30 to 6.30,CNC(=O)c1nnc(NC(=O)C2CC2)cc1Nc1cccc(-c2ccc(C(=O)N(C)Cc3ccccn3)nc2)c1OC [Compound 19]
–,–,–,5.30 to 6.30,8.00 to 11.00,5.30 to 6.30,CNC(=O)c1nnc(NC(=O)C2CC2)cc1Nc1cccc(-c2ccc(C(=O)N(C)Cc3cc(C#N)ccn3)nc2OC)c1OC [Compound 20]
–,–,–,5.30 to 6.30,8.00 to 11.00,5.30 to 6.30,CNC(=O)c1nnc(NC(=O)C2CC2)cc1Nc1cccc(-c2cnc(C(=O)N(CCOC)Cc3cccn(C)c3=O)c(F)c2)c1OC [Compound 21]
–,–,–,5.30 to 6.30,8.00 to 11.00,5.30 to 6.30,CNC(=O)c1nnc(NC(=O)C2CC2)cc1Nc1cccc(-c2cnc(C(=O)N(CCF)Cc3cccn(C)c3=O)c(F)c2)c1OC [Compound 22]
–,–,–,5.30 to 6.30,8.00 to 11.00,6.30 to 7.30,CNC(=O)c1nnc(NC(=O)C2CC2)cc1Nc1cccc(-c2ccc(C(=O)N(C)Cc3cccn(C)c3=O)nc2)c1OC [Compound 23]
–,–,–,5.30 to 6.30,8.00 to 11.00,5.30 to 6.30,CNC(=O)c1nnc(NC(=O)C2CC2)cc1Nc1cccc(-c2cnc(C(=O)N(C)Cc3cccn(C)c3=O)cc2C)c1OC [Compound 24]
–,–,–,5.30 to 6.30,8.00 to 11.00,5.30 to 6.30,CNC(=O)c1nnc(NC(=O)C2CC2)cc1Nc1cccc(-c2ccc(C(=O)N(C)Cc3cccn(C)c3=O)nc2OC)c1OC [Compound 25]
–,–,–,6.30 to 7.30,8.00 to 11.00,6.30 to 7.30,CNC(=O)c1nnc(NC(=O)C2CC2)cc1Nc1cccc(-c2cnc(C(=O)N(C)Cc3ccccn3)c(F)c2)c1OC [Compound 27]
–,–,–,6.30 to 7.30,8.00 to 11.00,6.30 to 7.30,CNC(=O)c1nnc(NC(=O)C2CC2)cc1Nc1cccc(-c2cnc(C(=O)N(C)Cc3cccn(C)c3=O)c(F)c2)c1OC [Compound 29]
–,–,–,5.30 to 6.30,8.00 to 11.00,5.30 to 6.30,CNC(=O)c1nnc(NC(=O)C2CC2)cc1Nc1cccc(-c2ccc(C(=O)N(C)Cc3cnc4ccc(Cl)cn34)nc2)c1OC [Compound 31]
–,–,–,5.30 to 6.30,7.30 to 8.00,4.00 to 5.30,CNC(=O)c1nnc(NC(=O)C2CC2)cc1Nc1cccc(-c2cnn(C3(CC#N)CN(Cc4ccccn4)C3)c2)c1OC [Compound 38]
–,–,–,6.30 to 7.30,8.00 to 11.00,6.30 to 7.30,CNC(=O)c1nnc(NC(=O)C2CC2)cc1Nc1cccc(-c2ccc(C(=O)N(C)Cc3cn(C)nc3C(F)(F)F)nc2)c1OC [Compound 51]
–,–,–,6.30 to 7.30,8.00 to 11.00,6.30 to 7.30,CNC(=O)c1nnc(NC(=O)C2CC2)cc1Nc1cccc(-c2cnc(C(=O)N(C)Cc3nn(C)cc3Br)nc2)c1OC [Compound 56]
–,–,–,6.30 to 7.30,8.00 to 11.00,6.30 to 7.30,CNC(=O)c1nnc(NC(=O)C2CC2)cc1Nc1cccc(-c2ccc(C(=O)N(C)Cc3cscn3)nc2)c1OC [Compound 57]
